Measured values taken from patent publication US12077503B2, “Substituted cyclic amides and their use as herbicides” (FMC CORPORATION, priority 2015, dated 2024).

Legend:
Assay type in all cases: in vivo
[1] = tested on: barnyardgrass (Echinochloa crus-galli); experiment: Test G Post-Emergence Protocol; conditions: Echinochloa crus-galli, post-emergence, 312 h
In short: (§1)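 Damage was rated 13 days after treatment from 0 (none) to 100 (plant killed). Compound was applied as a spray at 15.625, 62.5 or 250 g/ha in 50:50 acetone/water containing 0.5% Tween 20, onto 8-day-old potted plants kept in a glasshouse (24/16 °C, 14 h light, 65% humidity).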

[2] = tested on: giant foxtail (Setaria faberi); experiment: Test G Post-Emergence Protocol; conditions: Setaria faberi, post-emergence, 312 h
In short: as §1

[3] = tested on: velvetleaf (Abutilon theophrasti); experiment: Test G Post-Emergence Protocol; conditions: Abutilon theophrasti, post-emergence, 312 h
In short: as §1

[4] = tested on: ivy-leaved morning glory (Ipomoea hederacea); experiment: Test G Post-Emergence Protocol; conditions: Ipomoea, post-emergence, 312 h
In short: as §1

corn (Zea mays) [5] = experiment: Test G Post-Emergence Protocol; conditions: Zea mays, post-emergence, 312 h
In short: as §1

[6] = tested on: redroot pigweed (Amaranthus retroflexus); experiment: Test G Post-Emergence Protocol; conditions: Amaranthus retroflexus, post-emergence, 312 h
In short: as §1

[7] = tested on: barnyardgrass (Echinochloa crus-galli); experiment: Test G Pre-Emergence Protocol; conditions: Echinochloa crus-galli, pre-emergence, 312 h, evaluated after 13 days
In short: (§2)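 Spraying took place one day after sowing, at 15.625, 62.5 or 250 g/ha, using an acetone/water (50:50) spray solution containing 0.5% Tween 20. Plants were kept under glasshouse conditions (24/16 °C, 14 h light, 65% humidity, watered twice daily), and injury was rated 0–100 at day 13.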

[8] = tested on: giant foxtail (Setaria faberi); experiment: Test G Pre-Emergence Protocol; conditions: Setaria faberi, pre-emergence, 312 h, evaluated after 13 days
In short: as §2

[9] = tested on: velvetleaf (Abutilon theophrasti); experiment: Test G Pre-Emergence Protocol; conditions: Abutilon theophrasti, pre-emergence, 312 h, evaluated after 13 days
In short: as §2

[10] = tested on: ivy-leaved morning glory (Ipomoea hederacea); experiment: Test G Pre-Emergence Protocol; conditions: Ipomoea, pre-emergence, 312 h, evaluated after 13 days
In short: as §2

corn (Zea mays) [11] = experiment: Test G Pre-Emergence Protocol; conditions: Zea mays, pre-emergence, 312 h, evaluated after 13 days
In short: as §2

[12] = tested on: redroot pigweed (Amaranthus retroflexus); experiment: Test G Pre-Emergence Protocol; conditions: Amaranthus retroflexus, pre-emergence, 312 h, evaluated after 13 days
In short: as §2

Question: With `CN1C[C@H](c2ccc3c(c2)OCCO3)[C@@H](C(=O)Nc2cccc(F)c2F)C1=O` (racemic) [Compound 1490] as the compound, how does the pest or weed control at 15.625 g/ha ([1]; 15.625 g ai/ha, evaluated after 13 days (100=total damage to plant; 0=no damage to plant), read-out: Barnyardgrass damage rating) read?
Answer: 50%

Question: What about the pest or weed control at 62.5 g/ha ([1]; 62.5 g ai/ha, evaluated after 13 days, read-out: Barnyardgrass damage rating (100=total damage to plant; 0=no damage to plant)) of the same compound?
Answer: 60%

Question: What about the pest or weed control at 250 g/ha ([1]; 250 g ai/ha, evaluated after 13 days, read-out: damage to plant, Barnyardgrass (100=total damage to plant; 0=no damage to plant)) of the same compound?
Answer: 60%

Question: What about the pest or weed control at 15.625 g/ha ([2]; 15.625 g ai/ha, evaluated after 13 days (100=total damage to plant; 0=no damage to plant), read-out: Foxtail, Giant damage rating) of the same compound?
Answer: 50%

Question: And the pest or weed control at 62.5 g/ha ([2]; 62.5 g ai/ha, evaluated after 13 days, read-out: Foxtail, Giant damage rating (100=total damage to plant; 0=no damage to plant))?
Answer: 60%

Question: What about the pest or weed control at 250 g/ha ([2]; 250 g ai/ha, evaluated after 13 days, read-out: damage to plant, Foxtail, Giant (100=total damage to plant; 0=no damage to plant)) of the same compound?
Answer: 60%

Question: What about the pest or weed control at 15.625 g/ha ([3]; 15.625 g ai/ha, evaluated after 13 days (100=total damage to plant; 0=no damage to plant), read-out: Velvetleaf damage rating) of the same compound?
Answer: 0%

Question: And the pest or weed control at 62.5 g/ha ([3]; 62.5 g ai/ha, evaluated after 13 days, read-out: Velvetleaf damage rating (100=total damage to plant; 0=no damage to plant))?
Answer: 0%

Question: What about the pest or weed control at 250 g/ha ([3]; 250 g ai/ha, evaluated after 13 days, read-out: damage to plant, Velvetleaf (100=total damage to plant; 0=no damage to plant)) of the same compound?
Answer: 20%

Question: And the pest or weed control at 15.625 g/ha ([4]; 15.625 g ai/ha, evaluated after 13 days (100=total damage to plant; 0=no damage to plant), read-out: Morningglory, Ivy-leaved damage rating)?
Answer: 0%

Question: What about the pest or weed control at 62.5 g/ha ([4]; 62.5 g ai/ha, evaluated after 13 days, read-out: Morningglory, Ivy-leaved damage rating (100=total damage to plant; 0=no damage to plant)) of the same compound?
Answer: 0%

Question: And the pest or weed control at 250 g/ha ([4]; 250 g ai/ha, evaluated after 13 days, read-out: damage to plant, Morningglory, Ivy-leaved (100=total damage to plant; 0=no damage to plant))?
Answer: 30%

Question: What about the plant injury at 15.625 g/ha (corn (Zea mays) [5]; 15.625 g ai/ha, evaluated after 13 days (100=total damage to plant; 0=no damage to plant), read-out: Corn damage rating) of the same compound?
Answer: 0%

Question: And the plant injury at 62.5 g/ha (corn (Zea mays) [5]; 62.5 g ai/ha, evaluated after 13 days, read-out: Corn damage rating (100=total damage to plant; 0=no damage to plant))?
Answer: 30%

Question: And the plant injury at 250 g/ha (corn (Zea mays) [5]; 250 g ai/ha, evaluated after 13 days, read-out: damage to plant, Corn (100=total damage to plant; 0=no damage to plant))?
Answer: 40%

Question: What about the pest or weed control at 15.625 g/ha ([6]; 15.625 g ai/ha, evaluated after 13 days (100=total damage to plant; 0=no damage to plant), read-out: Pigweed, Redroot damage rating) of the same compound?
Answer: 0%

Question: What about the pest or weed control at 62.5 g/ha ([6]; 62.5 g ai/ha, evaluated after 13 days, read-out: Pigweed, Redroot damage rating (100=total damage to plant; 0=no damage to plant)) of the same compound?
Answer: 0%

Question: What about the pest or weed control at 250 g/ha ([6]; 250 g ai/ha, evaluated after 13 days, read-out: damage to plant, Pigweed, Redroot (100=total damage to plant; 0=no damage to plant)) of the same compound?
Answer: 0%

Question: And the pest or weed control at 15.625 g/ha ([7]; 15.625 g ai/ha, read-out: Barnyard grass damage rating (100=total damage to plant; 0=no damage to plant))?
Answer: 0%

Question: And the pest or weed control at 62.5 g/ha ([7]; 62.5 g ai/ha, 100=total damage to plant, 0=no damage to plant, read-out: plant damage rating, Barnyardgrass)?
Answer: 50%

Question: What about the pest or weed control at 250 g/ha ([7]; 250 g ai/ha, read-out: Barnyardgrass damage rating (100=total damage to plant; 0=no damage to plant)) of the same compound?
Answer: 80%

Question: What about the pest or weed control at 15.625 g/ha ([8]; 15.625 g ai/ha, read-out: Foxtail, Giant damage rating (100=total damage to plant; 0=no damage to plant)) of the same compound?
Answer: 0%

Question: And the pest or weed control at 62.5 g/ha ([8]; 62.5 g ai/ha, 100=total damage to plant, 0=no damage to plant, read-out: plant damage rating, Foxtail, Giant)?
Answer: 40%

Question: What about the pest or weed control at 250 g/ha ([8]; 250 g ai/ha, read-out: Foxtail, Giant damage rating (100=total damage to plant; 0=no damage to plant)) of the same compound?
Answer: 90%

Question: What about the pest or weed control at 15.625 g/ha ([9]; 15.625 g ai/ha, read-out: Velvetleaf damage rating (100=total damage to plant; 0=no damage to plant)) of the same compound?
Answer: 0%

Question: And the pest or weed control at 62.5 g/ha ([9]; 62.5 g ai/ha, 100=total damage to plant, 0=no damage to plant, read-out: plant damage rating, Velvetleaf)?
Answer: 0%

Question: And the pest or weed control at 250 g/ha ([9]; 250 g ai/ha, read-out: Velvetleaf damage rating (100=total damage to plant; 0=no damage to plant))?
Answer: 0%

Question: And the pest or weed control at 15.625 g/ha ([10]; 15.625 g ai/ha, read-out: Morning-glory, Ivy-leaved damage rating (100=total damage to plant; 0=no damage to plant))?
Answer: 0%

Question: And the pest or weed control at 62.5 g/ha ([10]; 62.5 g ai/ha, 100=total damage to plant, 0=no damage to plant, read-out: plant damage rating, Morningglory, Ivy-leaved)?
Answer: 0%

Question: What about the pest or weed control at 250 g/ha ([10]; 250 g ai/ha, read-out: Morningglory, Ivy-leaved damage rating (100=total damage to plant; 0=no damage to plant)) of the same compound?
Answer: 0%

Question: And the plant injury at 15.625 g/ha (corn (Zea mays) [11]; 15.625 g ai/ha, read-out: Corn damage rating (100=total damage to plant; 0=no damage to plant))?
Answer: 0%

Question: And the plant injury at 62.5 g/ha (corn (Zea mays) [11]; 62.5 g ai/ha, 100=total damage to plant, 0=no damage to plant, read-out: plant damage rating, Corn)?
Answer: 0%

Question: And the plant injury at 250 g/ha (corn (Zea mays) [11]; 250 g ai/ha, read-out: Corn damage rating (100=total damage to plant; 0=no damage to plant))?
Answer: 10%

Question: What about the pest or weed control at 15.625 g/ha ([12]; 15.625 g ai/ha, read-out: Pigweed, Redroot damage rating (100=total damage to plant; 0=no damage to plant)) of the same compound?
Answer: 0%

Question: What about the pest or weed control at 62.5 g/ha ([12]; 62.5 g ai/ha, 100=total damage to plant, 0=no damage to plant, read-out: plant damage rating, Pigweed, Redroot) of the same compound?
Answer: 0%

Question: And the pest or weed control at 250 g/ha ([12]; 250 g ai/ha, read-out: Pigweed, Redroot damage rating (100=total damage to plant; 0=no damage to plant))?
Answer: 0%
